Experimental findings from ChEMBL document CHEMBL1933060, “Discovery of novel 5-alkynyl-4-anilinopyrimidines as potent, orally active dual inhibitors of EGFR and Her-2 tyrosine kinases” (Bioorg Med Chem Lett, 2012) are described below.

Structures are written as SMILES. Active and inactive are the calls of the source. No cut-off for these calls is given here.

As usually defined, the IC50 is the concentration at which inhibition is half-maximal. Read a high IC50 as weaker potency in that assay. Broadly, the bioavailability is dose-corrected exposure relative to a reference, in per cent. Higher therefore signals good availability. By solubility is commonly meant the concentration that dissolves in the medium under given conditions. The term clearance denotes the volume of plasma or blood freed of the substance per unit of time. In general, AUC refers to concentration integrated over time.

The target of data set [1] is Receptor tyrosine-protein kinase erbB-2 (Homo sapiens, UniProt P04626). The data set can be described thus: Inhibition of Her-2 by time-resolved fluorescence assay.
Data set [2] has as its target Epidermal growth factor receptor (Homo sapiens, UniProt P00533). The data set can be described thus: Inhibition of EGFR by time-resolved fluorescence assay.
In data set [3] the test system is NCI-N87. Nature of the data set: Antiproliferative activity against human NCI-N87 cells after 3 days by methylene blue staining. Conditions: NCI-N87, 72 h. It is filed as functional, cell-based.
A further data set relates to BT-474. Nature of the data set: Antiproliferative activity against human BT474 cells after 3 days by methylene blue staining. Conditions: BT-474, 72 h. It is filed as functional, cell-based.
In data set [4] the test system is NCI-N87. The data set can be described thus: Antitumor activity against human NCI-N87 cells xenografted in athymic mouse assessed as tumor growth inhibition at 20 mg/kg, po QD for 14 days measured after 19 days. It is filed as functional, organism-based. Also noted: dose 20 mg/kg. In general terms: In xenograft studies the graft and the host belong to different species.

The next data set has as its target T1, Aurora kinase A (Homo sapiens, UniProt O14965).
T1 sequence (O14965 whole entry): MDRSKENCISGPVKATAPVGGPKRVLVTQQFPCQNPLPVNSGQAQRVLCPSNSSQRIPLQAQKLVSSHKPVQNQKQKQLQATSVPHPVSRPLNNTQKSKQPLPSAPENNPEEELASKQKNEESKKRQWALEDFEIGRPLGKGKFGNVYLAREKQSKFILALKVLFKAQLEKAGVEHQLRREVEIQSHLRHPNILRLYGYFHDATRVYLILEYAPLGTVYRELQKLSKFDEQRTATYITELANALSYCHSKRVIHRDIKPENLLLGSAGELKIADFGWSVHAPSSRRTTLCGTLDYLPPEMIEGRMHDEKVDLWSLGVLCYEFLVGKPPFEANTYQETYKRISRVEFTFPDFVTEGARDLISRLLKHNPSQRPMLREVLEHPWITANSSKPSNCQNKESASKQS
The data set can be described thus: Inhibition of Aurora A.

Data set [5] in a line: Oral bioavailability in rat. The settings on record: in vivo. It is filed as ADME, organism-based.
For data set [6], the system named is NCI-N87. The data set can be described thus: Antitumor activity against human NCI-N87 cells xenografted in athymic mouse assessed as tumor volume at 80 mg/kg, po QD for 14 days measured after 19 days relative to control. It is filed as functional.
The target in data set [7] is Tyrosine-protein kinase Lck (Homo sapiens, UniProt P06239). Nature of the data set: Inhibition of Lck.
In another data set the target is Insulin receptor (Homo sapiens, UniProt P06213). Nature of the data set: Inhibition of INSR.
A short description of data set [8]: Aqueous solubility of the compound at pH 7.4. It is filed as physicochemical.
Data set [9] can be described thus: Metabolic stability of the compound in human liver microsomes assessed as compound remaining after 30 mins. It is filed as ADME, Microsome. The settings on record: read-out: Stability. A general note: Liver microsomes are a subcellular fraction often used to study metabolism.
A short description of data set [10]: Total clearance in iv dosed rat. The format is ADME, organism-based. The settings on record: in vivo.
For data set [11], the target named is Vascular endothelial growth factor receptor 2 (Homo sapiens, UniProt P35968). The data set can be described thus: Inhibition of VEGFR2.
The subject of data set [12] is NCI-N87. The data set can be described thus: Antitumor activity against human NCI-N87 cells xenografted in athymic mouse assessed as tumor growth inhibition at 80 mg/kg, po QD for 14 days measured after 19 days. It is filed as functional, organism-based. Also noted: dose 80 mg/kg.
A short description of data set [13]: Metabolic stability of the compound in rat liver microsomes assessed as compound remaining after 30 mins. Conditions: read-out: Stability. The format is ADME, Microsome.
Data set [14] relates to NCI-N87. Nature of the data set: Antitumor activity against human NCI-N87 cells xenografted in athymic mouse assessed as tumor volume at 20 mg/kg, po QD for 14 days measured after 19 days relative to control. The format is functional.
For data set [15], the target named is Platelet-derived growth factor receptor beta (Homo sapiens, UniProt P09619). Nature of the data set: Inhibition of PDGFRbeta.
The nature of data set [16]: AUC in po dosed rat. The format is ADME, organism-based. The settings on record: plasma.

Chain of Epidermal growth factor receptor (P00533 whole entry): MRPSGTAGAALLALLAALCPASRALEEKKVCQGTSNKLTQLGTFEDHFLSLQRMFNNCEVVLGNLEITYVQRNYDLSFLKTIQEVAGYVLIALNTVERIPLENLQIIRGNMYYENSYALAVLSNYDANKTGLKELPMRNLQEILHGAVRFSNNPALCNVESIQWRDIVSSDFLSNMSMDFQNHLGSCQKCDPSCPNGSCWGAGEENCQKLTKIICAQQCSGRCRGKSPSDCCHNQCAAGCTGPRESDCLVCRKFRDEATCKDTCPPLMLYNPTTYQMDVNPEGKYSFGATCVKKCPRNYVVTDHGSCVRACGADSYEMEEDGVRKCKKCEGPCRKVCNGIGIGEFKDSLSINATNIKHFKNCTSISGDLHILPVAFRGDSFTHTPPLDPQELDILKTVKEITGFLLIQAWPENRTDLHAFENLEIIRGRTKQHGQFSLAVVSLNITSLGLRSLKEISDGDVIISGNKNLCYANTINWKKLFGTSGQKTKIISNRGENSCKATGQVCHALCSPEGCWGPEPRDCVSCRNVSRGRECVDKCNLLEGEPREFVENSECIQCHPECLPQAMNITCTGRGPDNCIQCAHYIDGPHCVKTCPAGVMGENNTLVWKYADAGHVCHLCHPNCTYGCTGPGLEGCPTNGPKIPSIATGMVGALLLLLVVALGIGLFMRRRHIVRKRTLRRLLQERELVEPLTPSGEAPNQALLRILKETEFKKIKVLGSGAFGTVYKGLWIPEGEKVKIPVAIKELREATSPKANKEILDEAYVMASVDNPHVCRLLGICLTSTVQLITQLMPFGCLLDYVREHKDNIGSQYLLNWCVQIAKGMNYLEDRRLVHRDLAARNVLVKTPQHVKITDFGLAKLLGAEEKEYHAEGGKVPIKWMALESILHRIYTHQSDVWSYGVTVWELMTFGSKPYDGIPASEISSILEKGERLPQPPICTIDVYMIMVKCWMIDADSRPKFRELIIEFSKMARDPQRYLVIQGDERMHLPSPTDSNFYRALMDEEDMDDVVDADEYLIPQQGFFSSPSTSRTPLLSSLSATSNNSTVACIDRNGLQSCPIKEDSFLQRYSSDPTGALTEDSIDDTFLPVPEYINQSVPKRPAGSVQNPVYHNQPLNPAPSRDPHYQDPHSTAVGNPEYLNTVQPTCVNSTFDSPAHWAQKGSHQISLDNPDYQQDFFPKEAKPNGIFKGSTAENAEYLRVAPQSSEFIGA
Chain of Receptor tyrosine-protein kinase erbB-2 (P04626 whole entry): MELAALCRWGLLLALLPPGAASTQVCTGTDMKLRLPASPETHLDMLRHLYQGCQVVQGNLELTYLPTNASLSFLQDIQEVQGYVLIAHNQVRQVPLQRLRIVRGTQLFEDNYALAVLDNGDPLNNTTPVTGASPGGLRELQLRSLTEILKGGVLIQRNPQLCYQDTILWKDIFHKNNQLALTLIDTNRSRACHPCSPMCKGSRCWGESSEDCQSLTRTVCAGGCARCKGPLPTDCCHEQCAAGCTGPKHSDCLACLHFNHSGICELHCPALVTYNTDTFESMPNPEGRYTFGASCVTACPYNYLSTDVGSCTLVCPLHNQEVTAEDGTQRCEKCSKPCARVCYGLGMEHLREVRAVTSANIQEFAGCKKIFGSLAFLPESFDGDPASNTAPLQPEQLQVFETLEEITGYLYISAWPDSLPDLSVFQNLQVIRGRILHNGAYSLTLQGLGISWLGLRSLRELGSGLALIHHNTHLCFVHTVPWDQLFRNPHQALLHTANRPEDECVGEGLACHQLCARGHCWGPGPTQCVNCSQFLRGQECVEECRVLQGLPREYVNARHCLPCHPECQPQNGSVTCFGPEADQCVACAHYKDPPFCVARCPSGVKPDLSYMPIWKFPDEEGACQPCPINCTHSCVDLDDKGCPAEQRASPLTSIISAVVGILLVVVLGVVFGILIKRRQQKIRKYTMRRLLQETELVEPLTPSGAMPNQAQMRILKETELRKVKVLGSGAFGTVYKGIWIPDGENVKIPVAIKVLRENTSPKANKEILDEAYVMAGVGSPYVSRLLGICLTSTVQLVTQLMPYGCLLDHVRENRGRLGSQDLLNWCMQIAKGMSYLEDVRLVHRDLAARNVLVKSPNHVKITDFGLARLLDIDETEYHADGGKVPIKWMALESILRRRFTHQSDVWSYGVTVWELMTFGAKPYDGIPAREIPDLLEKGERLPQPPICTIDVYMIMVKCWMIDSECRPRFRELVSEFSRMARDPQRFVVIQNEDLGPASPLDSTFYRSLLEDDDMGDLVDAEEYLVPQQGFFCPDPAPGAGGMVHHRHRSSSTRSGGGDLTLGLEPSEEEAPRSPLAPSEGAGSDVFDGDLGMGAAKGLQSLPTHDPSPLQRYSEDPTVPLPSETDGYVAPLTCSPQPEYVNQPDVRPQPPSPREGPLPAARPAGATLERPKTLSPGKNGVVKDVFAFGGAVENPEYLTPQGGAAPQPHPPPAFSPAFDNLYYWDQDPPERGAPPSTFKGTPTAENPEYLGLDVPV
Chain of Insulin receptor (P06213 28-758 limits assumed): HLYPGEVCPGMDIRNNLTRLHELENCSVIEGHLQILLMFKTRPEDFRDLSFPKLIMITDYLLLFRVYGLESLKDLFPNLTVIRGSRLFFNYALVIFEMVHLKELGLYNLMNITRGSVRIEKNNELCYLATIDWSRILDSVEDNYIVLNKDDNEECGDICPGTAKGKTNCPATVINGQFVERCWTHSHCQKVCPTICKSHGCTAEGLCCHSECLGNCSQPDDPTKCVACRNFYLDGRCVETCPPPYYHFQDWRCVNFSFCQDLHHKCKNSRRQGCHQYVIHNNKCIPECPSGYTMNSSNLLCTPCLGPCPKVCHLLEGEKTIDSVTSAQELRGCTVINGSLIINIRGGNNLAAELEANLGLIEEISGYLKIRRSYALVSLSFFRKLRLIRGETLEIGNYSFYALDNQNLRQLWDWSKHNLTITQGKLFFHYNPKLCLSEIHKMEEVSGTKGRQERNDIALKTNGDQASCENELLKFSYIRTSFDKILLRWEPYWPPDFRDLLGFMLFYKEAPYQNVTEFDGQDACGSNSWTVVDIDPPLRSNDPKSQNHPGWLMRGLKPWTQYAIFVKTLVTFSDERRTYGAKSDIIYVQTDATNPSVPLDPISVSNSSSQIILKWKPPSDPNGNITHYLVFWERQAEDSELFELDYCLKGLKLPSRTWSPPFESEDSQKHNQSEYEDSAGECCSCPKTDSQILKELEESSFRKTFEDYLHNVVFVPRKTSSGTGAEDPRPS
Chain of Insulin receptor (P06213 763-1382 limits assumed): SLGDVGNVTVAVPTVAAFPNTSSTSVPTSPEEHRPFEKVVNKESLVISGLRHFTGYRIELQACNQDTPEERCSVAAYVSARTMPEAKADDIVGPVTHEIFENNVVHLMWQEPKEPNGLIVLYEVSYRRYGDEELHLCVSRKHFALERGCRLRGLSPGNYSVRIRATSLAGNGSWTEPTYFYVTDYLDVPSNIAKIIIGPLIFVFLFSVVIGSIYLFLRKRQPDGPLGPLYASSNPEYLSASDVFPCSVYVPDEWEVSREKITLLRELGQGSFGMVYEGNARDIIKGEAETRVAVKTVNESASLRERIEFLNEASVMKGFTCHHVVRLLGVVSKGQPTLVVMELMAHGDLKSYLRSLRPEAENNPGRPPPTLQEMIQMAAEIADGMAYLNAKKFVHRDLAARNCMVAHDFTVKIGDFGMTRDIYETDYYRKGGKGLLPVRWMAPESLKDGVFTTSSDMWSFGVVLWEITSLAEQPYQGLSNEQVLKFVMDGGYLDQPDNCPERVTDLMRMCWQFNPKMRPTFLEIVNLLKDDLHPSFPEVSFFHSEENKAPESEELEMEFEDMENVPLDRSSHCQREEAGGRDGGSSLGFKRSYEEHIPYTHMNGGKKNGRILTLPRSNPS
Chain of Platelet-derived growth factor receptor beta (P09619 whole entry): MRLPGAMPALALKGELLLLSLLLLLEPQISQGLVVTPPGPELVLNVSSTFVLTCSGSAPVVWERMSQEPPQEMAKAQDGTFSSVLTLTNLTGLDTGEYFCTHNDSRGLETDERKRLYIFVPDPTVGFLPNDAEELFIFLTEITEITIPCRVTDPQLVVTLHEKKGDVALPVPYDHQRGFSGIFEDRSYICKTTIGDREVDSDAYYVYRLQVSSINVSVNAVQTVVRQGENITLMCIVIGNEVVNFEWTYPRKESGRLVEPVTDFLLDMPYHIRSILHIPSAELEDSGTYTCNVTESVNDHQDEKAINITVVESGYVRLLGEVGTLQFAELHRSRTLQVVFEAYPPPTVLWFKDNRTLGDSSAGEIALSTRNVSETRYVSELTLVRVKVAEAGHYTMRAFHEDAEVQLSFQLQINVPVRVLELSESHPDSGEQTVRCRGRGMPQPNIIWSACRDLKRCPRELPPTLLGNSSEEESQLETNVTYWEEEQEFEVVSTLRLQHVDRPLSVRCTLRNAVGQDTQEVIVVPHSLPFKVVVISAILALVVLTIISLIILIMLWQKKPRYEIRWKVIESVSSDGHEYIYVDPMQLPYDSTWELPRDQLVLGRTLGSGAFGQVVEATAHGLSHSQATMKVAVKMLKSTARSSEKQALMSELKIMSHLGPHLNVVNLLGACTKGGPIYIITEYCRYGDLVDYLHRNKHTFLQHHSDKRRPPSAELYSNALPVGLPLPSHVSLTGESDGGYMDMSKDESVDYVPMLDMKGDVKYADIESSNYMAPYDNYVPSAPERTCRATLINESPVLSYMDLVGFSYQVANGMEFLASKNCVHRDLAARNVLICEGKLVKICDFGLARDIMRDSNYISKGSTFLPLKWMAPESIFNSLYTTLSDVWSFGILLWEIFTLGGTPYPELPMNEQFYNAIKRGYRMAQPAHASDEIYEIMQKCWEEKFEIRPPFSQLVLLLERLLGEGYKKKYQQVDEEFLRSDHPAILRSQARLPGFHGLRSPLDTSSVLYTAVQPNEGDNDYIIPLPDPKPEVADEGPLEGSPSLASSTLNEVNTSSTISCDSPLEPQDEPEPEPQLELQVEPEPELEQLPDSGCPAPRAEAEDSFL

On to `Cc1ncnc(Nc2ccc(OCc3cccc(F)c3)c(Cl)c2)c1C#Cc1ccc(CNCCS(C)(=O)=O)cc1`, for which the IC50 worked out at 220 nM in data set [1] and 22 nM in data set [2].
For `Cc1ncnc(Nc2ccc(OCc3cccc(F)c3)c(Cl)c2)c1C#Cc1ccc(CN(C)C)cc1`, in that order: 41 nM and 7 nM.
As for `Cc1ncnc(Nc2ccc(OCc3cccc(F)c3)c(Cl)c2)c1C#Cc1ccc(CNC(C)C)cc1`, the IC50 with NCI-N87 [3] was found to be 240 nM; in data set [1] it was 18 nM; with BT-474 it was 170 nM; in data set [2] it was 3 nM.
Take `CS(=O)(=O)CCNCc1ccc(-c2ccc3ncnc(Nc4ccc(OCc5cccc(F)c5)c(Cl)c4)c3c2)o1`: in the data set with NCI-N87 [4], the “growth inhibition (GI)” value is “Active”.
As to `Cc1ncnc(Nc2ccc(OCc3cccc(F)c3)c(Cl)c2)c1/C=C/c1ccc(CNC(C)C)cc1`, the values for the IC50 in [1] and in data set [2] were 30 nM and 24 nM, respectively.
Take `Cc1ncnc(Nc2ccc(OCc3cccc(F)c3)c(Cl)c2)c1C#Cc1ncc(CN2CCCC2)s1`: the values for the IC50 in data set [1] and in data set [2] were 110 nM and 74 nM, respectively.
On to `Cc1ncnc(Nc2ccc(OCc3cccc(F)c3)c(Cl)c2)c1C#Cc1ccc(CN2CCCC2)s1`, for which the IC50 was found to be 690 nM in the data set with NCI-N87 [3], 180 nM in data set [1], 410 nM with BT-474 and 30 nM in [2].
Consider `CS(=O)(=O)CCNCc1ccc(-c2ccc3ncnc(Nc4ccc(OCc5cccc(F)c5)c(Cl)c4)c3c2)o1` [LAPATINIB], for which the IC50 in the data set with NCI-N87 [3] is 90 nM; in the data set on BT-474 it was 100 nM.
In the case of `Cc1ncnc(Nc2ccc(OCc3cccc(F)c3)c(Cl)c2)c1C#Cc1ccc(CN2CCCC2)c(F)c1`, the IC50 on Aurora kinase A is above 100000 nM; in data set [7], above 100000 nM; with NCI-N87 [3], 60 nM; against Insulin receptor it was above 100000 nM; in data set [1] it was 62 nM; in data set [11], above 100000 nM. Besides, the results for the IC50 (in the data set with BT-474; in [15]; in data set [2]) were 50 nM, above 100000 nM and 190 nM, respectively. The bioavailability in [5] is 35%. For the same compound, the T/C in the data set with NCI-N87 [6] was 0.54; in the data set with NCI-N87 [14] it was 0.56. In [8], this compound had a solubility above 50 µM. The remaining at 0.5 h in data set [9] amounted to 24%; in data set [13], 63%. Also, the clearance in data set [10] is 18 mL/min/kg. Further, the “growth inhibition (GI)” value in the data set on NCI-N87 [12] and in the data set on NCI-N87 [4] was “Active” each time. In data set [16], this compound returned an AUC of 361 ng·h/mL.
For `Cc1ncnc(Nc2ccc(OCc3cccc(F)c3)c(Cl)c2)c1C#Cc1ccc(CN2CCCC2)o1`, the IC50 in the data set with NCI-N87 [3] stood at 1360 nM; in data set [1], 140 nM; with BT-474, 810 nM; in data set [2] it was 79 nM.
On to `Cc1ncnc(Nc2ccc(OCc3cccc(F)c3)c(Cl)c2)c1C#Cc1ccccc1`, for which the IC50 in data set [1] turned out to be 750 nM; in [2] it was 650 nM.
In the same order, the values of `Cc1ncnc(Nc2ccc(OCc3cccc(F)c3)c(Cl)c2)c1C#Cc1cccc(CN(C)C)c1` are 73 nM and 55 nM.
In the same order, the values of `Cc1ncnc(Nc2ccc(OCc3cccc(F)c3)c(Cl)c2)c1C#Cc1ccc(CN2CCCC2)cc1` are 41 nM and 9 nM.
Take `Cc1ncnc(Nc2ccc(OCc3cccc(F)c3)c(Cl)c2)c1/C=C/c1ccc(CNCCS(C)(=O)=O)cc1`: the IC50 is 780 nM in the data set on NCI-N87 [3], 120 nM in data set [1] and 640 nM in the data set with BT-474.
With `CS(=O)(=O)CCNCc1ccc(-c2ccc3ncnc(Nc4ccc(OCc5cccc(F)c5)c(Cl)c4)c3c2)o1.Cc1ccc(S(=O)(=O)O)cc1.Cc1ccc(S(=O)(=O)O)cc1.O` [LAPATINIB DITOSYLATE], the T/C was 0.37 with NCI-N87 [6] and 0.57 in the data set on NCI-N87 [14].
As to `Cc1ncnc(Nc2ccc(OCc3cccc(F)c3)c(Cl)c2)c1/C=C/c1ccc(CNC2CC2)cc1`, the IC50 came to 86 nM in [1] and 98 nM in data set [2].
For `Cc1ncnc(Nc2ccc(OCc3cccc(F)c3)c(Cl)c2)c1C#CCOc1ccc(CNC(C)C)cc1`, in that order: 130 nM and 86 nM.
